Results taken from PMC5693757 (Journal of molecular biology, 2017).

What was measured:
Type in all cases: binding
ARL2 [1] = target: T1, ARL2 (Homo sapiens, UniProt P36404); test: HDX-MS
ARL2 [2] = target: T1, ARL2; test: radioligand nitrocellulose filter trapping
ARL2 [3] = target: T1, ARL2; test: real-time mant fluorescence association/dissociation kinetics

T1 sequence (P36404 2-184): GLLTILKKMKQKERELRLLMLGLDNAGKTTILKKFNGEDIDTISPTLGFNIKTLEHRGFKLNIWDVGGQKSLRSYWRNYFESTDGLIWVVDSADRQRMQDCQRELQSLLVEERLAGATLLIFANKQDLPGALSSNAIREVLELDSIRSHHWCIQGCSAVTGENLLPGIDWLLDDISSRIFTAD

**Q.** For `Nc1nc2c(ncn2[C@@H]2O[C@H](COP(=O)(O)OP(=O)(O)O)[C@@H](O)[C@H]2O)c(=O)[nH]1` [GDP], which HDX-MS (ARL2 [1]) is on record?
**A.** addition of GDP to ARL2 (apo→GDP) resulted in large protection to deuterium uptake at the conserved nucleotide-binding motifs G1 and G4

**Q.** With `Nc1nc2c(ncn2[C@@H]2O[C@H](COP(=O)(O)OP(=O)(O)OP(O)(O)=S)[C@@H](O)[C@H]2O)c(=O)[nH]1` [GTPγS] as the compound, how does the “radioligand nitrocellulose filter trapping; HDX-MS” value (ARL2 [2]) read?
**A.** Human ARL2 monomer, exogenously expressed and purified from E. coli or HEK cells, bound GTPγS to similar stoichiometries

**Q.** With mant-Gpp(NH)p as the compound, how does the Kd (ARL2 [3]) read?
**A.** 590 nM
